Columns and labels:
[1] = system: CDK8 (phosphorylation of STAT1 at serine 727 in A549 cells); experiment: Cell based Phospho-STAT1 assay (IFNγ-stimulated A549 cells, AlphaLISA); settings: Homo sapiens, A549, A549 cells, phospho-STAT1 after IFNγ stimulation
In short: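 A549 cells given serial compound dilutions for 1 h at 37 °C, then stimulated with IFNγ at 10 ng/mL final for 30 min. Lysate STAT1 Ser727 phosphorylation measured by AlphaLISA; % inhibition vs stimulated/unstimulated DMSO controls, IC50 by nonlinear regression.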

[2] = system: CDK8 (TCF/LEF luciferase reporter in HCT116 cells); experiment: Cell based TCF/LEF reporter assay (HCT116+TCF/LEF luciferase); settings: Homo sapiens, HCT-116, 24 h
In short: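 HCT116 cells stably carrying a TCF/LEF-luciferase reporter (endogenous mutant β-catenin), seeded overnight, then exposed to serial compound dilutions for 24 h at 37 °C. Luminescence normalized to CellTiter-Fluor viability signal. % inhibition relative to DMSO and 10 uM CCT251545 controls, with IC50 from nonlinear regression.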

## N#CC1CCC(c2cccn3ncc(-c4ccc5cc(C(=O)O)ccc5c4)c23)CC1 (stereo not shown) [Compound P-0193, 6-(4-(4-cyanocyclohexyl)pyrazolo[1,5-a]pyridin-3-yl)-2-naphthoic acid]
[1]
  IC50: 100 to 1000 nM
[2]
  IC50: 1000 to 10000 nM

## CC(C)(O)Cn1cc(-c2ccc(-c3cnn4ccnc(C5CCC(C#N)CC5)c34)cc2Cl)cn1 (stereo not shown) [Compound P-0031, (1s,4s)-4-(3-(3-chloro-4-(1-(2-hydroxy-2-methylpropyl)-1H-pyrazol-4-yl)phenyl)pyrazolo[1,5-a]pyrazin-4-yl)cyclohexane-1-carbonitrile]
[1]
  IC50: 0.1 to 100 nM
[2]
  IC50: 0.1 to 100 nM

## CN1CCN(C(=O)c2ccc3cc(-c4cnc5[nH]ccc5c4N4CCC(C#N)CC4)ccc3c2)CC1 [Compound P-0328, 1-(5-(6-(4-methylpiperazine-1-carbonyl)naphthalen-2-yl)-1H-pyrrolo[2,3-b]pyridin-4-yl)piperidine-4-carbonitrile]
[1]
  IC50: 0.1 to 100 nM
[2]
  IC50: 0.1 to 100 nM

## N#CC1CCC(c2nccn3ncc(-c4ccc(-c5cnn(CCF)c5)cc4)c23)CC1 (stereo not shown) [Compound P-0007, (1s,4s)-4-(3-(4-(1-(2-fluoroethyl)-1H-pyrazol-4-yl)phenyl)pyrazolo[1,5-a]pyrazin-4-yl)cyclohexane-1-carbonitrile]
[1]
  IC50: 0.1 to 100 nM
[2]
  IC50: 0.1 to 100 nM

## CC(C)(O)Cn1cc(-c2ccc(-c3cnn4cccc(C#CC(C)(C)C(N)=O)c34)cc2)cn1 [Compound P-0006, 4-(3-(4-(1-(2-hydroxy-2-methylpropyl)-1H-pyrazol-4-yl)phenyl)pyrazolo[1,5-a]pyridin-4-yl)-2,2-dimethylbut-3-ynamide]
[1]
  IC50: 0.1 to 100 nM
[2]
  IC50: 0.1 to 100 nM

## CC(C)(O)Cn1cc2cc(-c3cnn4ccnc(C5=CCC(C#N)CC5)c34)ccc2n1 (stereo not shown) [Compound P-0106, 4-(3-(2-(2-hydroxy-2-methylpropyl)-2H-indazol-5-yl)pyrazolo[1,5-a]pyrazin-4-yl)cyclohex-3-ene-1-carbonitrile]
[1]
  IC50: 0.1 to 100 nM
[2]
  IC50: 100 to 1000 nM

## Cn1cc(-c2ccc(-c3cnc4cccc(C5=CCC(C(N)=O)CC5)n34)cc2)cn1 (stereo not shown) [Compound P-0416, 4-(3-(4-(1-methyl-1H-pyrazol-4-yl)phenyl)imidazo[1,2-a]pyridin-5-yl)cyclohex-3-ene-1-carboxamide]
[1]
  IC50: 100 to 1000 nM
[2]
  IC50: 100 to 1000 nM

## N#CC1C2CCC1CN(c1cccn3ncc(-c4ccc(Cl)cc4)c13)C2 (stereo not shown) [Compound P-0161, 3-(3-(4-chlorophenyl)pyrazolo[1,5-a]pyridin-4-yl)-3-azabicyclo[3.2.1]octane-8-carbonitrile]
[1]
  IC50: 1000 to 10000 nM
[2]
  IC50: 1000 to 10000 nM

## N#CCCn1cc(-c2ccc(-c3cnn4ccnc(C5CCC(C#N)CC5)c34)cc2F)cn1 (stereo not shown) [Compound P-0019, (1s,4s)-4-(3-(4-(1-(2-cyanoethyl)-1H-pyrazol-4-yl)-3-fluorophenyl)pyrazolo[1,5-a]pyrazin-4-yl)cyclohexane-1-carbonitrile]
[1]
  IC50: 0.1 to 100 nM
[2]
  IC50: 0.1 to 100 nM

## N#CC1CCN(c2c(-c3ccc(-c4cnn(CC5CC5)c4)cc3)cnc3[nH]ccc23)CC1 [Compound P-0177, 1-(5-(4-(1-(cyclopropylmethyl)-1H-pyrazol-4-yl)phenyl)-1H-pyrrolo[2,3-b]pyridin-4-yl)piperidine-4-carbonitrile]
[1]
  IC50: 0.1 to 100 nM
[2]
  IC50: 0.1 to 100 nM

## CC(C)(O)Cn1cc(-c2ccc(-c3cnn4ccnc(C5=CCC(C#N)CC5)c34)cc2)cn1 (stereo not shown) [Compound P-0162, 4-(3-(4-(1-(2-hydroxy-2-methylpropyl)-1H-pyrazol-4-yl)phenyl)pyrazolo[1,5-a]pyrazin-4-yl)cyclohex-3-ene-1-carbonitrile]
[1]
  IC50: 0.1 to 100 nM
[2]
  IC50: 0.1 to 100 nM

## Cn1cc(C#Cc2cnc3cccc(N4CCC5(CCNC5=O)CC4)n23)cn1 [Compound P-0278, 8-(3-((1-methyl-1H-pyrazol-4-yl)ethynyl)imidazo[1,2-a]pyridin-5-yl)-2,8-diazaspiro[4.5]decan-1-one]
[1]
  IC50: 100 to 1000 nM
[2]
  IC50: 100 to 1000 nM

## N#CC1CCN(c2c(-c3ccc4cc(C(=O)O)ccc4c3)cnc3[nH]ccc23)CC1 [Compound P-0200, 6-(4-(4-cyanopiperidin-1-yl)-1H-pyrrolo[2,3-b]pyridin-5-yl)-2-naphthoic acid]
[1]
  IC50: 1000 to 10000 nM
[2]
  IC50: 100 to 1000 nM

## CN1CCN(C(=O)c2ccc(-c3cnc4[nH]ccc4c3C3=CCC(C#N)CC3)cc2)CC1 (stereo not shown) [Compound P-0331, 4-(5-(4-(4-methylpiperazine-1-carbonyl)phenyl)-1H-pyrrolo[2,3-b]pyridin-4-yl)cyclohex-3-ene-1-carbonitrile]
[1]
  IC50: 100 to 1000 nM
[2]
  IC50: 100 to 1000 nM

## N#CC1CC=C(c2nccn3ncc(-c4cnn(C5CC5)c4)c23)CC1 (stereo not shown) [Compound P-0076, 4-(3-(1-cyclopropyl-1H-pyrazol-4-yl)pyrazolo[1,5-a]pyrazin-4-yl)cyclohex-3-ene-1-carbonitrile]
[1]
  IC50: 100 to 1000 nM
[2]
  IC50: 100 to 1000 nM

## Cn1cc(-c2ccc(-c3cnn4cccc(C#CC(C)(C)C(=O)O)c34)cc2)cn1 [Compound P-0297, 2,2-dimethyl-4-(3-(4-(1-methyl-1H-pyrazol-4-yl)phenyl)pyrazolo[1,5-a]pyridin-4-yl)but-3-ynoic acid]
[1]
  IC50: 100 to 1000 nM
[2]
  IC50: 0.1 to 100 nM

## Cn1ncc2cc(-c3cnn4cccc(C#CC5(O)COC5)c34)ccc21 [Compound P-0362, 3-((3-(1-methyl-1H-indazol-5-yl)pyrazolo[1,5-a]pyridin-4-yl)ethynyl)oxetan-3-ol]
[1]
  IC50: 0.1 to 100 nM
[2]
  IC50: 100 to 1000 nM

## N#CC1CC=C(c2cccn3ncc(-c4ccc5nccnc5c4)c23)CC1 (stereo not shown) [Compound P-0122, 4-(3-(quinoxalin-6-yl)pyrazolo[1,5-a]pyridin-4-yl)cyclohex-3-ene-1-carbonitrile]
[1]
  IC50: 0.1 to 100 nM
[2]
  IC50: 0.1 to 100 nM

## Cn1cc(-c2ccc(-c3cnn4cccc(C5=CCN(C(N)=O)CC5)c34)cc2)cn1 [Compound P-0185, 4-[3-[4-(1-methylpyrazol-4-yl)phenyl]pyrazolo[1,5-a]pyridin-4-yl]-3,6-dihydro-2H-pyridine-1-carboxamide]
[1]
  IC50: 100 to 1000 nM
[2]
  IC50: 1000 to 10000 nM

## CCCS(=O)(=O)Nc1ccc2cc(-c3cnn4ccnc(C5=CCC(C#N)CC5)c34)ccc2c1 (stereo not shown) [Compound P-0060, N-(6-(4-(4-cyanocyclohex-1-en-1-yl)pyrazolo[1,5-a]pyrazin-3-yl)naphthalen-2-yl)propane-1-sulfonamide]
[1]
  IC50: 0.1 to 100 nM
[2]
  IC50: 0.1 to 100 nM

## N#CC1CC=C(c2nccn3ncc(-c4ccc(-c5cn[nH]c5)cc4)c23)CC1 (stereo not shown) [Compound P-0008, 4-(3-(4-(1H-pyrazol-4-yl)phenyl)pyrazolo[1,5-a]pyrazin-4-yl)cyclohex-3-ene-1-carbonitrile]
[1]
  IC50: 0.1 to 100 nM
[2]
  IC50: 0.1 to 100 nM

## N#CC1CC=C(c2cccn3ncc(-c4cc5ccccc5s4)c23)CC1 (stereo not shown) [Compound P-0121, 4-(3-(benzo[b]thiophen-2-yl)pyrazolo[1,5-a]pyridin-4-yl)cyclohex-3-ene-1-carbonitrile]
[1]
  IC50: 0.1 to 100 nM
[2]
  IC50: 0.1 to 100 nM

## CC(C)(O)C#Cc1cccn2ncc(-c3ccc4cc(C(N)=O)ccc4c3)c12 [Compound P-0191, 6-(4-(3-hydroxy-3-methylbut-1-yn-1-yl)pyrazolo[1,5-a]pyridin-3-yl)-2-naphthamide]
[1]
  IC50: 0.1 to 100 nM
[2]
  IC50: 100 to 1000 nM

## CC(C)(C#Cc1nccn2ncc(-c3ccc4c(cnn4C(F)F)c3)c12)C(N)=O [Compound P-0095, 4-(3-(1-(difluoromethyl)-1H-indazol-5-yl)pyrazolo[1,5-a]pyrazin-4-yl)-2,2-dimethylbut-3-ynamide]
[1]
  IC50: 0.1 to 100 nM
[2]
  IC50: 0.1 to 100 nM

## Cc1nc2ccc(-c3cnn4cccc(C5=CCC(C#N)CC5)c34)cc2s1 (stereo not shown) [Compound P-0214, 4-(3-(2-methylbenzo[d]thiazol-6-yl)pyrazolo[1,5-a]pyridin-4-yl)cyclohex-3-ene-1-carbonitrile]
[1]
  IC50: 0.1 to 100 nM
[2]
  IC50: 0.1 to 100 nM

## Cn1cc(-c2ccc(-c3cnn4ccnc(C5=CCC(C#N)CC5)c34)cc2)cn1 (stereo not shown) [Compound P-0323, 4-(3-(4-(1-methyl-1H-pyrazol-4-yl)phenyl)pyrazolo[1,5-a]pyrazin-4-yl)cyclohex-3-ene-1-carbonitrile]
[1]
  IC50: 0.1 to 100 nM
[2]
  IC50: 0.1 to 100 nM

## N#CC1CCN(c2c(-c3ccc(OCCOC4CCOCC4)cc3)cnc3[nH]ccc23)CC1 [Compound P-0171]
[1]
  IC50: 0.1 to 100 nM
[2]
  IC50: 0.1 to 100 nM

## N#CC1CC=C(c2cccn3ncc(-c4ccc5cccnc5c4)c23)CC1 (stereo not shown) [Compound P-0124, 4-(3-(quinolin-7-yl)pyrazolo[1,5-a]pyridin-4-yl)cyclohex-3-ene-1-carbonitrile]
[1]
  IC50: 0.1 to 100 nM
[2]
  IC50: 100 to 1000 nM

## Cn1cc(-c2ccc(-c3cnc4[nH]ccc4c3C3=CCC(C#N)CC3)cc2)cn1 (stereo not shown) [Compound P-0359, 4-(5-(4-(1-methyl-1H-pyrazol-4-yl)phenyl)-1H-pyrrolo[2,3-b]pyridin-4-yl)cyclohex-3-ene-1-carbonitrile]
[1]
  IC50: 0.1 to 100 nM
[2]
  IC50: 0.1 to 100 nM

## Cc1ccc2cc(-c3cnc4[nH]ccc4c3N3CCC(C#N)CC3)ccc2n1 [Compound P-0209, 1-(5-(2-methylquinolin-6-yl)-1H-pyrrolo[2,3-b]pyridin-4-yl)piperidine-4-carbonitrile]
[1]
  IC50: 0.1 to 100 nM
[2]
  IC50: 0.1 to 100 nM

## CS(=O)(=O)Cn1cc(-c2ccc(-c3cnn4ccnc(C5=CCC(C#N)CC5)c34)cc2)cn1 (stereo not shown) [Compound P-0028, 4-(3-(4-(1-((methylsulfonyl)methyl)-1H-pyrazol-4-yl)phenyl)pyrazolo[1,5-a]pyrazin-4-yl)cyclohex-3-ene-1-carbonitrile]
[1]
  IC50: 0.1 to 100 nM
[2]
  IC50: 0.1 to 100 nM

## O=C(O)C1CC=C(c2cccn3ncc(-c4ccc(-n5cccn5)cc4)c23)CC1 (stereo not shown) [Compound P-0213, 4-(3-(4-(1H-pyrazol-1-yl)phenyl)pyrazolo[1,5-a]pyridin-4-yl)cyclohex-3-ene-1-carboxylic acid]
[1]
  IC50: 1000 to 10000 nM
[2]
  IC50: 1000 to 10000 nM

Reference: patent publication US10703757B2, “Compounds and methods for CDK8 modulation and indications therefor” (Plexxikon Inc., priority 2016, dated 2020)
